Data published in article PMC6320956, “O-Aminoalkyl-O-Trimethyl-2,3-Dehydrosilybins: Synthesis and In Vitro Effects Towards Prostate Cancer Cells” (Molecules, 2018).

Columns and labels:
Format in all cases: cell-based, human
[1] = system: PC-3 cells; assay: WST-1 cell proliferation assay, PC-3; details: for IC50: Homo sapiens, PC-3, 72 h, WST-1, three days of exposure, mean ± SD, n = 3; for IC50 (Silibinin)/IC50(Derivative) PC-3: fold potency relative to silibinin
Description: (§1) The in vitro antiproliferative activities of six 7-O-substituted and 26 3-O-substituted silybin derivatives were evaluated using the WST-1 cell proliferation assay, according to the procedure as described in the Experimental Section in both androgen-sensitive (LNCaP) and androgen-insensitive (PC-3 and DU145) human prostate cancer cell lines. Silibinin and docetaxel were used as a positive control for comparison in the parallel experiments and the IC50 values calculated from the dose-response curves are summarized in Table 1. […] A three-carbon linker in 11 and 29, as well as a five-carbon linker in 31, 37 and 40, are beneficial to the potency.
(§2) All cell lines were initially purchased from American Type Culture Collection (ATCC^TM) (Manassas, VA, USA). The PC-3 and LNCaP prostate cancer cell lines were routinely cultured in RPIM-1640 medium supplemented with 10% FBS and 1% penicillin/streptomycin. The DU145 prostate cancer cells were routinely cultured in Eagle’s Minimum Essential Medium (EMEM) supplemented with 10% FBS and 1% penicillin/streptomycin. Cultures were maintained in a high humidity environment supplemented with 5% carbon dioxide at a temperature of 37 °C.
(§3) PC-3, DU145, or LNCaP cells were plated in 96-well plates at a density of 3,200 per well in 200 µL of culture medium. The cells were then separately treated with silibinin, or synthesized silibinin derivatives, at five different doses for three days, while equal treatment volumes of DMSO (0.25%) were used as the vehicle control. The cells were cultured in a CO2 incubator at 37 °C for three days. A total of 10 µL of the premixed WST-1 cell proliferation reagent (Clontech) was added to each well. After mixing gently for one min on an orbital shaker, the cells were incubated for an additional 3 h at 37 °C. To ensure a homogeneous distribution of color, it is important to mix gently on an orbital shaker for one min. The absorbance of each well was measured using a microplate reader (Synergy HT, BioTek, Winooski, VT, USA) at a wavelength of 430 nm. […] For calculating the IC50 values, a linear proliferative inhibition was made based on at least five dosages for each compound.

[2] = system: DU145 cells; assay: WST-1 cell proliferation assay, DU145; details: for IC50: Homo sapiens, DU-145, 72 h, WST-1, three days of exposure, mean ± SD, n = 3; for IC50 (Silibinin)/IC50(Derivative) DU145: fold potency relative to silibinin
Description: as §1, §2, §3

[3] = system: LNCaP cells; assay: WST-1 cell proliferation assay, LNCaP; details: for IC50: Homo sapiens, LNCaP, 72 h, WST-1, three days of exposure, mean ± SD, n = 3; for IC50 (Silibinin)/IC50(Derivative) LNCaP: fold potency relative to silibinin
Description: as §1, §2, §3

Structure (SMILES) | IC50 [1] [µM] | IC50 (Silibinin)/IC50(Derivative) PC-3 [1] | IC50 [2] [µM] | IC50 (Silibinin)/IC50(Derivative) DU145 [2] | IC50 [3] [µM] | IC50 (Silibinin)/IC50(Derivative) LNCaP [3]
CCCN(CCC)CCCCOc1c(-c2ccc3c(c2)OC(c2ccc(OC)c(OC)c2)C(CO)O3)oc2cc(OC)cc(OC)c2c1=O (stereo not drawn) [Compound 27] | 3.77 ± 0.41 | 19 | 5.39 ± 0.53 | 17 | 4.02 ± 1.55 | 11
COc1cc(OC)c2c(=O)c(OCCCCCN3CCNCC3)c(-c3ccc4c(c3)OC(c3ccc(OC)c(OC)c3)C(CO)O4)oc2c1 (stereo not drawn) [Compound 43] | 7.87 ± 1.47 | 9 | 48.1 ± 16.3 | 2 | 14.4 ± 7.49 | 3
COc1ccc(C2Oc3cc(-c4oc5cc(OCCCN6CCOCC6)cc(OC)c5c(=O)c4OC)ccc3OC2CO)cc1OC (stereo not drawn) [Compound 13] | 26.5 ± 1 | 3 | 45.1 ± 11.5 | 2 | 12.7 ± 6.28 | 3
CCCN(CCC)CCCCCOc1c(-c2ccc3c(c2)OC(c2ccc(OC)c(OC)c2)C(CO)O3)oc2cc(OC)cc(OC)c2c1=O (stereo not drawn) [Compound 28] | 3.3 ± 0.86 | 22 | 5.78 ± 1.36 | 16 | 2.7 ± 0.47 | 16
COc1cc(OC)c2c(=O)c(OCCCN3CCN(C)CC3)c(-c3ccc4c(c3)OC(c3ccc(OC)c(OC)c3)C(CO)O4)oc2c1 (stereo not drawn) [Compound 44] | 8.45 ± 2.89 | 9 | 18.6 ± 7.67 | 5 | 12.8 ± 7.8 | 3
COc1cc(OC)c2c(=O)c(OCCCCN3CCNCC3)c(-c3ccc4c(c3)OC(c3ccc(OC)c(OC)c3)C(CO)O4)oc2c1 (stereo not drawn) [Compound 42] | 5.3 ± 0.66 | 14 | 6.85 ± 0.77 | 14 | 4.58 ± 1.77 | 10
COc1cc(OC)c2c(=O)c(OCCCN3CCCCC3)c(-c3ccc4c(c3)OC(c3ccc(OC)c(OC)c3)C(CO)O4)oc2c1 (stereo not drawn) [Compound 35] | 2.37 ± 0.7 | 31 | 7.26 ± 1.12 | 13 | 2.28 ± 0.42 | 19
COc1cc(OC)c2c(=O)c(OCCCCN3CCOCC3)c(-c3ccc4c(c3)OC(c3ccc(OC)c(OC)c3)C(CO)O4)oc2c1 (stereo not drawn) [Compound 39] | 3.49 ± 0.24 | 21 | 6.36 ± 0.37 | 15 | 2.84 ± 0.22 | 15
COc1ccc(C2Oc3cc(-c4oc5cc(OCCCN6CCN(C)CC6)cc(OC)c5c(=O)c4OC)ccc3OC2CO)cc1OC (stereo not drawn) [Compound 14] | 25.7 ± 3.39 | 3 | 19.4 ± 0.88 | 5 | 16.4 ± 3.47 | 3
COc1cc(OC)c2c(=O)c(OCCCN3CCOCC3)c(-c3ccc4c(c3)OC(c3ccc(OC)c(OC)c3)C(CO)O4)oc2c1 (stereo not drawn) [Compound 38] | 2.94 ± 0.13 | 25 | 10.6 ± 0.63 | 9 | 1.74 ± 0.97 | 25
CCN(CC)CCCOc1cc(OC)c2c(=O)c(OC)c(-c3ccc4c(c3)OC(c3ccc(OC)c(OC)c3)C(CO)O4)oc2c1 (stereo not drawn) [Compound 10] | 9.92 ± 0.43 | 7 | 8.62 ± 0.32 | 11 | 7.49 ± 0.16 | 6
COc1cc(OC)c2c(=O)c(OCCCCCN(C)C)c(-c3ccc4c(c3)OC(c3ccc(OC)c(OC)c3)C(CO)O4)oc2c1 (stereo not drawn) [Compound 22] | 3.47 ± 2.23 | 21 | 6.73 ± 0.45 | 14 | 5.07 ± 0.52 | 9
COc1cc(OC)c2c(=O)c(OCCCCN3CCCC3)c(-c3ccc4c(c3)OC(c3ccc(OC)c(OC)c3)C(CO)O4)oc2c1 (stereo not drawn) [Compound 33] | 7.49 ± 1.98 | 10 | 19.8 ± 2.38 | 5 | 8.06 ± 1.44 | 5
